# PMC7539012, “Hyperphosphorylated tau aggregation and cytotoxicity modulators screen identified prescription drugs linked to Alzheimer's disease and cognitive functions” (Scientific Reports, 2020)
# Counter-ions that a name gives are not always drawn.
# Tested on: T1, 1N4R p-tau
# T1 construct: made in house; host or cells: E. coli (PIMAX system)
# Assay: p-tau aggregation modulator screen of 1280-compound library (ThS fluorescence net change over 16 h);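 as to ThS net change: 30 µM compound with 6 µM p-tau over 16 h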
# Assay type: biochemical
# Parameters: key to PTAI>2SD: *: PTAI>2SD
# Conditions: not given
row,Compound,ThS net change
1,NCCCCCC(=O)O [Aminocaproic acid],456
2,CCN(CC)CC(=O)Nc1c(C)cccc1C [Lidocaine hydrochloride],271
3,O=C(Oc1cccc2cccnc12)c1ccccc1 [Benzoxiquine],287
4,Clc1ccc(COC(Cn2ccnc2)c2ccc(Cl)cc2Cl)cc1 (stereo not shown) [Econazole nitrate],309
5,CC(=O)NCCCS(=O)(=O)O [Acamprosate calcium],422
6,C=CC[N@@+]12CC[C@]34c5ccccc5N5/C=C6\C7N(/C=C(\C53)[C@@H](C[C@@H]41)/C(=C/CO)C2)c1ccccc1[C@@]71CC[N@@+]2(CC=C)C/C(=C\CO)[C@@H]6C[C@@H]12.[Cl-].[Cl-] (stereo partly shown) [Alcuronium chloride],460
7,C#C[C@]1(O)CC[C@H]2[C@@H]3CCC4=CC(=O)CC[C@]4(C)[C@H]3CC[C@@]21C [Ethisterone],490

# Same assay, conditions: 1280-compound library screen; ThS fluorescence net change over 16 h
row,Compound,ThS net change
1,CC12CC3CC(C)(C1)CC(N)(C3)C2 [Memantine Hydrochloride],405
2,CN1C2CCCC1CC(NC(=O)c1nn(C)c3ccccc13)C2 (stereo not shown) [Granisetron],399
3,CCN(CC)CC#CCOC(=O)C(O)(c1ccccc1)C1CCCCC1 (stereo not shown) [Oxybutynin chloride],400
4,O=C(NC(Cc1cc(=O)[nH]c2ccccc12)C(=O)O)c1ccc(Cl)cc1 (stereo not shown) [Rebamipide],378
5,CC[C@H](C)C(=O)O[C@H]1C[C@@H](C)C=C2C=C[C@H](C)[C@H](CC[C@@H]3C[C@@H](O)CC(=O)O3)[C@H]21 [Lovastatin],408
6,CCOCCn1c(N2CCCN(C)CC2)nc2ccccc21 [Emedastine],387
7,COc1ccc2c(c1)c(CC(=O)O)c(C)n2C(=O)c1ccc(Cl)cc1 [Indomethacin],386
8,NC(=O)NC1NC(=O)NC1=O (stereo not shown) [Allantoin],390
9,CCCC(C(=O)OCCN(CC)CC)(c1ccccc1)c1ccccc1 [Proadifen hydrochloride],390
10,CC(=O)OCC(=O)[C@@]1(OC(C)=O)[C@@H](C)C[C@H]2[C@@H]3C[C@H](F)C4=CC(=O)C=C[C@]4(C)[C@@]3(F)[C@@H](O)C[C@@]21C [Diflorasone Diacetate],407
11,CC1(C)S[C@@H]2[C@H](NC(=O)[C@H](NC(=O)N3CCNC3=O)c3ccccc3)C(=O)N2[C@H]1C(=O)O [Azlocillin sodium salt],396
12,CC(=O)O[C@]1(C(C)=O)CC[C@H]2[C@@H]3C=C(Cl)C4=CC(=O)CC[C@]4(C)[C@H]3CC[C@@]21C [Chlormadinone acetate],385
13,CCCCOc1ccc(OCCCN2CCOCC2)cc1 [Pramoxine hydrochloride],381
14,Nc1ccc(S(=O)(=O)Nc2ncccn2)cc1 [Sulfadiazine],379
15,C/C=C(/C(=C/C)c1ccc(O)cc1)c1ccc(O)cc1 [Dienestrol],410
16,O=C1CCc2cc(OCCCCc3nnnn3C3CCCCC3)ccc2N1 [Cilostazol],397
17,CC1(C)O[C@@H]2[C@@H](CO[C@@]3(COS(N)(=O)=O)OC(C)(C)O[C@@H]23)O1 [Topiramate],392

# Same assay, conditions: 1280-compound library screen; […]
row,Compound,ThS net change
1,CN1CCN(C(=O)OC2c3nccnc3C(=O)N2c2ccc(Cl)cn2)CC1 (stereo not shown) [Zopiclone],407
2,"CC(O)(P(=O)([O-])O)P(=O)([O-])O.[Na+].[Na+] [Etidronic acid, disodium salt]",392

# Same assay, conditions: flag: p-tau aggregation inhibitor, ThS net change more than 2 SD from mean
row,Compound,PTAI>2SD
1,C[C@H]1c2cccc(O)c2C(=O)C2=C(O)[C@]3(O)C(=O)C(C(N)=O)=C(O)[C@@H](N(C)C)[C@@H]3[C@@H](O)[C@@H]21 [Doxycycline hydrochloride],*

# Same assay, conditions: library screen, ThS fluorescence net change over 16 h with p-tau
row,Compound,ThS net change
1,COc1ccc(C(=O)c2ccccc2O)c(O)c1 [Dioxybenzone],296
2,CC1COc2c(N3CCN(C)CC3)c(F)cc3c(=O)c(C(=O)O)cn1c23 (stereo not shown) [Ofloxacin],311
3,C[C@H]1c2cccc(O)c2C(=O)C2=C(O)[C@]3(O)C(=O)C(C(N)=O)=C(O)[C@@H](N(C)C)[C@@H]3[C@@H](O)[C@@H]21 [Doxycycline hydrochloride],174
4,CCN(CC)CCOC(=O)C(Cc1cccc2ccccc12)CC1CCCO1 (stereo not shown) [Nafronyl oxalate],324
5,N[C@@H](Cc1cc(I)c(Oc2cc(I)c(O)c(I)c2)c(I)c1)C(=O)O [Thyroxine (L)],301
6,CN1CCCN=C1/C=C/c1cccs1.O=C(O)C(O)C(O)C(=O)O [Pyrantel tartrate],312
7,OC(c1cc(C(F)(F)F)nc2c(C(F)(F)F)cccc12)C1CCCCN1 (stereo not shown) [Mefloquine hydrochloride],304

# Same assay, conditions: p-tau aggregation modulator screen of 1280-compound library; ThS fluorescence net change
row,Compound,ThS net change
1,c1ccc(CC2=NCCN2)cc1 [Tolazoline hydrochloride],360
2,CN1CCN(C2=Nc3ccccc3Oc3ccc(Cl)cc32)CC1 [Loxapine succinate],358
3,CNC(=C[N+](=O)[O-])NCCSCc1csc(CN(C)C)n1 [Nizatidine],334
4,NS(=O)(=O)c1cc2c(cc1Cl)NC(C(Cl)Cl)NS2(=O)=O (stereo not shown) [Trichlormethiazide],375
5,O=c1oc2ccccc2c(O)c1Cc1c(O)c2ccccc2oc1=O [Dicumarol],363
6,O=C(O)/C=C\C(=O)O.O=C(O)/C=C\C(=O)O.c1ccc2nc(N3CCNCC3)ccc2c1 [Quipazine dimaleate salt],377
7,COc1ccc2[nH]c([S+]([O-])Cc3ncc(C)c(OC)c3C)nc2n1 (stereo not shown) [Tenatoprazole],371
8,CCCCCCCCNC(C)C(O)c1ccc(SC(C)C)cc1 (stereo not shown) [Suloctidil],370
9,NC[C@@H]1O[C@H](O[C@H]2[C@@H](O)[C@H](O[C@@H]3[C@@H](O)[C@H](N)C[C@H](N)[C@H]3O[C@H]3O[C@H](CN)[C@@H](O)[C@H](O)[C@H]3N)O[C@@H]2CO)[C@H](N)[C@@H](O)[C@@H]1O.O=S(=O)(O)O [Neomycin sulfate],340

# Same assay, conditions: p-tau aggregation modulator screen of 1280-compound library; […]
row,Compound,ThS net change
1,C[C@]12N[C@H](Cc3ccccc31)c1ccccc12 [Dizocilpine maleate],349

# Same assay, conditions: p-tau aggregation modulator screen of the compound library, ThS fluorescence net change
row,Compound,ThS net change
1,CN1[C@@H]2CC[C@H]1C[C@@H](OC(c1ccccc1)c1ccccc1)C2 [Benztropine mesylate],419
2,Nc1nc(F)nc2c1ncn2[C@@H]1O[C@H](CO)[C@@H](O)[C@@H]1O [Fludarabine],428
3,Olmesartan,482
4,O=C(O)c1ccccc1Nc1cccc(C(F)(F)F)c1 [Flufenamic acid],416
5,Cn1c([N+](=O)[O-])cnc1COC(N)=O [Ronidazole],445
6,O=C(O)CCc1nc(-c2ccccc2)c(-c2ccccc2)o1 [Oxaprozin],425
7,"C[C@](N)(Cc1ccc(O)c(O)c1)C(=O)O [Methyldopa (L,-)]",447
8,C#C[C@]1(O)CC[C@H]2[C@@H]3CCC4=Cc5oncc5C[C@]4(C)[C@H]3CC[C@@]21C [Danazol],495
9,C[C@@H]1CN([C@H]2CC[C@](C#N)(c3ccc(F)cc3)CC2)CC[C@]1(C(=O)O)c1ccccc1 [Levocabastine hydrochloride],416
10,CC[C@H](c1ccc(O)cc1)[C@@H](CC)c1ccc(O)cc1 [Hexestrol],435
11,CCc1cccc(CC)c1NC(=O)CN(CC(=O)O)CC(=O)O [Etifenin],414
12,CC(C)C(=O)c1c(C(C)C)nn2ccccc12 [Ibudilast],444
13,CC(C)(C)NC[C@H](O)c1ccc(O)c(CO)c1 [Levalbuterol hydrochloride],422
14,C[N+](C)(C)CCOC(N)=O [Carbachol],440
